ChEMBL document CHEMBL1201862, “PubChem BioAssay data set” (2004)
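Interpolation was linear, between the two tested concentrations surrounding the appropriate level; five concentrations were tested over 48 hours in 96-well plates. GI50 marks 50% less growth.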 The source made the active and inactive calls. Rule as the data show it: active = GI50 up to about 1.1 µM and inactive = higher.

Assays:
Test in all cases: NCI tumour cell line growth inhibition, 48 h
786-0 = test system: 786-0
A498 = test system: A498
A549 = test system: A549
ACHN = test system: ACHN
BT-549 = test system: BT-549
CAKI-1 = test system: CAKI-1
CCRF-CEM = test system: CCRF-CEM
COLO 205 = test system: COLO 205
DU-145 = test system: DU-145
EKVX = test system: EKVX
HCC 2998 = test system: HCC 2998
HCT-116 = test system: HCT-116
HCT-15 = test system: HCT-15
HL-60 = test system: HL-60
HOP-62 = test system: HOP-62
HOP-92 = test system: HOP-92
HT-29 = test system: HT-29
Hs-578T = test system: Hs-578T
IGROV-1 = test system: IGROV-1
K562 = test system: K562
KM12 = test system: KM12
LOX IMVI = test system: LOX IMVI
M14 = test system: M14
MCF7 = test system: MCF7
MDA-MB-231 = test system: MDA-MB-231
MDA-MB-435 = test system: MDA-MB-435
MDA-N = test system: MDA-N
MOLT-4 = test system: MOLT-4
Malme-3M = test system: Malme-3M
NCI-H226 = test system: NCI-H226
NCI-H23 = test system: NCI-H23
NCI-H460 = test system: NCI-H460
NCI-H522 = test system: NCI-H522
NCI/ADR-RES = test system: NCI/ADR-RES
OVCAR-3 = test system: OVCAR-3
OVCAR-4 = test system: OVCAR-4
OVCAR-5 = test system: OVCAR-5
OVCAR-8 = test system: OVCAR-8
PC-3 = test system: PC-3
RPMI-8226 = test system: RPMI-8226
RXF 393 = test system: RXF 393
SF-268 = test system: SF-268
SF-295 = test system: SF-295
SF-539 = test system: SF-539
SK-MEL-28 = test system: SK-MEL-28
SK-MEL-2 = test system: SK-MEL-2
SK-MEL-5 = test system: SK-MEL-5
SK-OV-3 = test system: SK-OV-3
SN12C = test system: SN12C
SNB-19 = test system: SNB-19
SNB-75 = test system: SNB-75
SR = test system: SR
SW-620 = test system: SW-620
T47D = test system: T47D
TK-10 = test system: TK-10
U-251 = test system: U-251
UACC-257 = test system: UACC-257
UACC-62 = test system: UACC-62
UO-31 = test system: UO-31

SMILES: CC(C)=NNc1ncnc2[nH]cnc12
- GI50 (786-0): 5.83 µM (inactive)
- GI50 (A498): 5.07 µM (inactive)
- GI50 (A549): 4.89 µM (inactive)
- GI50 (ACHN): 5.7 µM (inactive)
- GI50 (BT-549): 48.1 µM (inactive)
- GI50 (CAKI-1): 3.66 µM (inactive)
- GI50 (CCRF-CEM): 4.9 µM (inactive)
- GI50 (COLO 205): 5.94 µM (inactive)
- GI50 (DU-145): 3.85 µM (inactive)
- GI50 (EKVX): 12.9 µM (inactive)
- GI50 (HCC 2998): 5.04 µM (inactive)
- GI50 (HCT-116): 3.71 µM (inactive)
- GI50 (HCT-15): 6.01 µM
- GI50 (HL-60): 3.71 µM (inactive)
- GI50 (HOP-62): 5.12 µM (inactive)
- GI50 (HOP-92): 16.9 µM (inactive)
- GI50 (HT-29): 6.04 µM (inactive)
- GI50 (Hs-578T): 11.8 µM (inactive)
- GI50 (IGROV-1): 7.82 µM (inactive)
- GI50 (K562): > 19.6 µM (inactive)
- GI50 (KM12): 5.33 µM (inactive)
- GI50 (LOX IMVI): 4.78 µM (inactive)
- GI50 (M14): 4.65 µM (inactive)
- GI50 (MCF7): 4.07 µM (inactive)
- GI50 (MDA-MB-231): 6.95 µM (inactive)
- GI50 (MDA-MB-435): 6.87 µM (inactive)
- GI50 (MDA-N): 8.79 µM (inactive)
- GI50 (MOLT-4): 9.06 µM (inactive)
- GI50 (Malme-3M): 49.7 µM (inactive)
- GI50 (NCI-H226): 12 µM (inactive)
- GI50 (NCI-H23): 29.6 µM (inactive)
- GI50 (NCI-H460): 7.06 µM (inactive)
- GI50 (NCI-H522): 2.86 µM (inactive)
- GI50 (NCI/ADR-RES): 5.01 µM (inactive)
- GI50 (OVCAR-3): 5.78 µM (inactive)
- GI50 (OVCAR-4): 9.95 µM (inactive)
- GI50 (OVCAR-5): 4.65 µM (inactive)
- GI50 (OVCAR-8): 5.55 µM (inactive)
- GI50 (PC-3): 9.04 µM (inactive)
- GI50 (RPMI-8226): 4.83 µM (inactive)
- GI50 (RXF 393): 6.87 µM (inactive)
- GI50 (SF-268): 7.89 µM (inactive)
- GI50 (SF-295): 8.55 µM (inactive)
- GI50 (SF-539): 36.4 µM (inactive)
- GI50 (SK-MEL-28): 63 µM (inactive)
- GI50 (SK-MEL-2): 3.82 µM (inactive)
- GI50 (SK-MEL-5): 14.5 µM (inactive)
- GI50 (SK-OV-3): 3.88 µM (inactive)
- GI50 (SN12C): 14.5 µM (inactive)
- GI50 (SNB-19): 45.5 µM (inactive)
- GI50 (SNB-75): 18.2 µM (inactive)
- GI50 (SR): 4.69 µM (inactive)
- GI50 (SW-620): 11.9 µM (inactive)
- GI50 (T47D): 11.2 µM (inactive)
- GI50 (TK-10): 4.9 µM (inactive)
- GI50 (U-251): 20.4 µM (inactive)
- GI50 (UACC-257): 10 µM (inactive)
- GI50 (UACC-62): 2.68 µM (inactive)
- GI50 (UO-31): 3.21 µM (inactive)

SMILES: O=S1(=O)c2ccccc2NC(=S)N1c1ccccc1
- GI50 (786-0): > 87.3 µM (inactive)
- GI50 (A498): > 58.9 µM (inactive)
- GI50 (A549): 6.17 µM (inactive)
- GI50 (ACHN): 70.6 µM (inactive)
- GI50 (BT-549): 47.6 µM (inactive)
- GI50 (CAKI-1): > 72.8 µM (inactive)
- GI50 (CCRF-CEM): 54.1 µM (inactive)
- GI50 (COLO 205): 77.8 µM (inactive)
- GI50 (DU-145): 87.1 µM (inactive)
- GI50 (EKVX): 32.4 µM (inactive)
- GI50 (HCC 2998): 53.5 µM (inactive)
- GI50 (HCT-116): 45.3 µM (inactive)
- GI50 (HCT-15): 75 µM
- GI50 (HL-60): 32 µM (inactive)
- GI50 (HOP-62): 7.1 µM (inactive)
- GI50 (HOP-92): 3.89 µM (inactive)
- GI50 (HT-29): > 13.4 µM (inactive)
- GI50 (Hs-578T): 69.2 µM (inactive)
- GI50 (IGROV-1): 2.45 µM (inactive)
- GI50 (K562): 49.1 µM (inactive)
- GI50 (KM12): > 77.1 µM (inactive)
- GI50 (LOX IMVI): 26.7 µM (inactive)
- GI50 (M14): 29.5 µM (inactive)
- GI50 (MCF7): 63.2 µM (inactive)
- GI50 (MDA-MB-231): > 57.8 µM (inactive)
- GI50 (MDA-MB-435): 50.1 µM (inactive)
- GI50 (MDA-N): 36 µM (inactive)
- GI50 (MOLT-4): 29.5 µM (inactive)
- GI50 (Malme-3M): 46.1 µM (inactive)
- GI50 (NCI-H226): 43.9 µM (inactive)
- GI50 (NCI-H23): 46.3 µM (inactive)
- GI50 (NCI-H460): > 79.1 µM (inactive)
- GI50 (NCI-H522): 21.3 µM (inactive)
- GI50 (NCI/ADR-RES): 60.1 µM (inactive)
- GI50 (OVCAR-3): 41.4 µM (inactive)
- GI50 (OVCAR-4): 53.3 µM (inactive)
- GI50 (OVCAR-5): 92.9 µM (inactive)
- GI50 (OVCAR-8): 34.6 µM (inactive)
- GI50 (PC-3): 58.3 µM (inactive)
- GI50 (RPMI-8226): > 59.2 µM (inactive)
- GI50 (RXF 393): > 54.2 µM (inactive)
- GI50 (SF-268): 71.1 µM (inactive)
- GI50 (SF-295): 3.49 µM (inactive)
- GI50 (SF-539): > 100 µM (inactive)
- GI50 (SK-MEL-28): > 89.9 µM (inactive)
- GI50 (SK-MEL-2): 73.5 µM (inactive)
- GI50 (SK-MEL-5): 32 µM (inactive)
- GI50 (SK-OV-3): > 100 µM (inactive)
- GI50 (SN12C): 62.2 µM (inactive)
- GI50 (SNB-19): 7.1 µM (inactive)
- GI50 (SNB-75): 2.61 µM (inactive)
- GI50 (SR): 44.8 µM (inactive)
- GI50 (SW-620): > 100 µM (inactive)
- GI50 (T47D): 69.5 µM (inactive)
- GI50 (TK-10): > 72.4 µM (inactive)
- GI50 (U-251): > 72.3 µM (inactive)
- GI50 (UACC-257): 40 µM (inactive)
- GI50 (UACC-62): 65.9 µM (inactive)
- GI50 (UO-31): 36.7 µM (inactive)
